Source: the supplement of paper PMC10307832

Tests used:
Test in all cases: relative viability (nuclei count vs DMSO), 5 days (fraction); higher = more cells survive
[1] = system: SW 900
In short: (§1)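 Five library-drug doses in √10 steps were combined with a fixed anchor-drug dose, or a single drug was given alone, by pin tool to lung cancer cell lines in 1536-well plates the day after seeding. Nuclei were stained and counted after 5 days. Relative viability is the nuclei count in treated wells over that in vehicle wells, taken as the median of duplicate plates.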

[2] = system: NCI-H2085
In short: as §1

[3] = system: NCI-H358
In short: as §1

[4] = system: NCI-H1944
In short: as §1

[5] = system: LC-2-ad
In short: as §1

[6] = system: HOP-62
In short: as §1

[7] = system: LU99A
In short: as §1

[8] = system: UMC-11
In short: as §1

[9] = system: NCI-H2009
In short: as §1

[10] = system: NCI-H1666
In short: as §1

[11] = system: NCI-H1793
In short: as §1

[12] = system: A-427
In short: as §1

[13] = system: LXF-289
In short: as §1

[14] = system: NCI-H460
In short: as §1

[15] = system: EPLC-272H
In short: as §1

[16] = system: NCI-H2170
In short: as §1

[17] = system: NCI-H1792
In short: as §1

[18] = system: COR-L 105
In short: as §1

[19] = system: SK-LU-1
In short: as §1

[20] = system: NCI-H1915
In short: as §1

Which results are given for `Nc1ccn([C@@H]2O[C@H](CO)[C@@H](O)[C@@H]2O)c(=O)n1` [Cytarabine] + CCNC(=O)c1noc(-c2cc(C(C)C)c(O)cc2O)c1-c1ccc(CN2CCOCC2)cc1 [Luminespib] (partner 0.01 µM)?
relative viability ([1]; first compound 0.005 µM): 0.16; relative viability ([1]; first compound 0.01581 µM): 0.184; relative viability ([1]; first compound 0.05 µM): 0.186; relative viability ([1]; first compound 0.1581 µM): 0.142; relative viability ([1]; first compound 0.5 µM): 0.137; relative viability ([2]; first compound 0.005 µM): 0.426; relative viability ([2]; first compound 0.01581 µM): 0.459; relative viability ([2]; first compound 0.05 µM): 0.455; relative viability ([2]; first compound 0.1581 µM): 0.415; relative viability ([2]; first compound 0.5 µM): 0.339; relative viability ([3]; first compound 0.005 µM): 0.338; relative viability ([3]; first compound 0.01581 µM): 0.582; relative viability ([3]; first compound 0.05 µM): 0.34; relative viability ([3]; first compound 0.1581 µM): 0.144; relative viability ([3]; first compound 0.5 µM): 0.181; relative viability ([4]; first compound 0.005 µM): 0.619; relative viability ([4]; first compound 0.01581 µM): 0.343; relative viability ([4]; first compound 0.05 µM): 0.264; relative viability ([4]; first compound 0.1581 µM): 0.185; relative viability ([4]; first compound 0.5 µM): 0.134; relative viability ([5]; first compound 0.005 µM): 0.892; relative viability ([5]; first compound 0.01581 µM): 0.994; relative viability ([5]; first compound 0.05 µM): 0.768; relative viability ([5]; first compound 0.1581 µM): 0.636; relative viability ([5]; first compound 0.5 µM): 0.478; relative viability ([6]; first compound 0.005 µM): 0.679; relative viability ([6]; first compound 0.01581 µM): 0.49; relative viability ([6]; first compound 0.05 µM): 0.285; relative viability ([6]; first compound 0.1581 µM): 0.135; relative viability ([6]; first compound 0.5 µM): 0.135; relative viability ([7]; first compound 0.005 µM): 0.209; relative viability ([7]; first compound 0.01581 µM): 0.199; relative viability ([7]; first compound 0.05 µM): 0.217; relative viability ([7]; first compound 0.1581 µM): 0.167; relative viability ([7]; first compound 0.5 µM): 0.201; relative viability ([8]; first compound 0.005 µM): 0.792; relative viability ([8]; first compound 0.01581 µM): 0.591; relative viability ([8]; first compound 0.05 µM): 0.495; relative viability ([8]; first compound 0.1581 µM): 0.357; relative viability ([8]; first compound 0.5 µM): 0.225; relative viability ([9]; first compound 0.005 µM): 0.995; relative viability ([9]; first compound 0.01581 µM): 1.06; relative viability ([9]; first compound 0.05 µM): 1.04; relative viability ([9]; first compound 0.1581 µM): 0.775; relative viability ([9]; first compound 0.5 µM): 0.239; relative viability ([10]; first compound 0.005 µM): 1.01; relative viability ([10]; first compound 0.01581 µM): 0.94; relative viability ([10]; first compound 0.05 µM): 0.675; relative viability ([10]; first compound 0.1581 µM): 0.539; relative viability ([10]; first compound 0.5 µM): 0.579; relative viability ([11]; first compound 0.005 µM): 0.201; relative viability ([11]; first compound 0.01581 µM): 0.186; relative viability ([11]; first compound 0.05 µM): 0.232; relative viability ([11]; first compound 0.1581 µM): 0.184; relative viability ([11]; first compound 0.5 µM): 0.155; relative viability ([12]; first compound 0.005 µM): 0.708; relative viability ([12]; first compound 0.01581 µM): 0.425; relative viability ([12]; first compound 0.05 µM): 0.238; relative viability ([12]; first compound 0.1581 µM): 0.186; relative viability ([12]; first compound 0.5 µM): 0.161; relative viability ([13]; first compound 0.005 µM): 0.673; relative viability ([13]; first compound 0.01581 µM): 0.665; relative viability ([13]; first compound 0.05 µM): 0.43; relative viability ([13]; first compound 0.1581 µM): 0.266; relative viability ([13]; first compound 0.5 µM): 0.149; relative viability ([14]; first compound 0.005 µM): 0.036; relative viability ([14]; first compound 0.01581 µM): 0.0332; relative viability ([14]; first compound 0.05 µM): 0.0248; relative viability ([14]; first compound 0.1581 µM): 0.0172; relative viability ([14]; first compound 0.5 µM): 0.0144; relative viability ([15]; first compound 0.005 µM): 0.433; relative viability ([15]; first compound 0.01581 µM): 0.241; relative viability ([15]; first compound 0.05 µM): 0.194; relative viability ([15]; first compound 0.1581 µM): 0.228; relative viability ([15]; first compound 0.5 µM): 0.243; relative viability ([16]; first compound 0.005 µM): 0.761; relative viability ([16]; first compound 0.01581 µM): 0.431; relative viability ([16]; first compound 0.05 µM): 0.248; relative viability ([16]; first compound 0.1581 µM): 0.23; relative viability ([16]; first compound 0.5 µM): 0.158; relative viability ([17]; first compound 0.01581 µM): 0.431; relative viability ([17]; first compound 0.05 µM): 0.366; relative viability ([17]; first compound 0.1581 µM): 0.313; relative viability ([17]; first compound 0.5 µM): 0.271; relative viability ([18]; first compound 0.005 µM): 0.783; relative viability ([18]; first compound 0.01581 µM): 0.667; relative viability ([18]; first compound 0.05 µM): 0.739; relative viability ([18]; first compound 0.1581 µM): 0.405; relative viability ([18]; first compound 0.5 µM): 0.278; relative viability ([19]; first compound 0.005 µM): 0.178; relative viability ([19]; first compound 0.01581 µM): 0.183; relative viability ([19]; first compound 0.05 µM): 0.214; relative viability ([19]; first compound 0.1581 µM): 0.185; relative viability ([19]; first compound 0.5 µM): 0.185; relative viability ([20]; first compound 0.005 µM): 0.622; relative viability ([20]; first compound 0.01581 µM): 0.773; relative viability ([20]; first compound 0.05 µM): 0.871; relative viability ([20]; first compound 0.1581 µM): 0.486; relative viability ([20]; first compound 0.5 µM): 0.435
